Results reported in patent publication US20100016172A1, “Nucleic acid binding assay materials and methods” (priority 2007, published 2010).
Read-outs that look alike come from different tables or passages of the source. Values belong to the molecule of their own block, whether it stands above or below them.

Tests used:
[1] = system: DNA cognate sites (sequences used in the footprints); details: footprinting, cited from earlier work
[2] = system: 8-position sequence variation DNA hairpin target array; experiment: CSI array binding assay of PA1 (Cy3 fluorescence intensity)
Description: Hairpin Target CSI Microarray. Each hairpin target was composed of a central permuted 8 base pair region with X^1 with a three base pair CGC sequence anchor region flanking either end, with a complementary sequence on X^2. A fluorescently tagged nucleic acid binding assay molecule was applied to the microarray to generate the nucleic acid binding profile for that assay molecule. Analysis of the array signal intensity gives rise to a reference grid showing the binding intensity output for the array. High intensity features indicate tight binding of the assay molecule to that specific target sequence.
Binding Assay: Microarray slides were immersed in 1×PBS (Phosphate Buffered Saline) and placed in a 90° C. water bath for 30 minutes to induce hairpin formation of the oligonucleotides. Slides were then transferred to a tube of non-stringent wash buffer (Saline-Sodium Phosphate-EDTA Buffer, 0.01% v/v Tween-20) and scanned to check for low background (<200 intensity). Microarrays were scanned using a ScanArray 5000 and the image files extracted with GenePix Pro version 3.0.
Polyamide binding: Microarrays prepared as above were placed in the microarray hybridization chamber and washed twice with non-stringent wash buffer. Polyamide was diluted to 5 nM in Hyb buffer (100 mM MES, 1 M NaCl, 20 mM EDTA, 0.01% v/v Tween-20). Polyamide (5 nM) was then added to the hybridization chamber and incubated at room temperature overnight (16 hours). Finally, the microarrays were washed twice with non-stringent wash buffer and scanned.
The array-to-array variability was very low with an average correlation coefficient of 0.88 (FIG. 4A). […] The duplicate features within an array and replicate features between arrays were averaged together to give finalized intensities. These averaged intensities were then converted into Z-scores [z=signal−meant/standard deviation] to reflect the signal-to-noise ratio.
Data Processing: For each replicate, global mean normalization was used to ensure the mean intensity of each microarray was the same. Local mean normalization (Colantuoni, C., Henry, G., Zeger, S. & Pevsner, J. (2002) Bioinformatics 18, 1540-1541) was then used to ensure the intensity was evenly distributed throughout each sector of the microarray surface. Outliers between replicate features were detected using the Q-test at 90% confidence and filtered out. The replicates were then quantile normalized (Bolstad, B. M., Irizarry, R. A., Astrand, M. & Speed, T. P. (2003) Bioinformatics 19, 185-193) in order to account for any possible non-linearity between arrays. Duplicate features were then averaged together. The median of the averaged features was subtracted to account for background.
Z-scores were calculated as |signal−median|/standard deviation. Due to the right-handed tail effect, standard deviation of the background signal was based upon the standard deviation from the median of all signals less than the median. The relationship of Z-score to P-value can be found in Table 1, below. Motifs were then found by running several motif finding algorithms (Bailey, T. L. & Elkan, C. (1994) Proc. of the 2nd Intl. Conference on Intelligent Systems for Mol. Biol., AAAI Press, Menlo Park, Calif., 28-36; Hughes, J. D., Estep, P. W., Tavazoie, S. & Church, G. M. (2000) J. Mol. Biol. 296, 1205-1214; Liu, X. S., Brutlag, D. L. & Liu, J. S. (2002) Nat. Biotechnol. 20, 835-839) on sequences in the highest Z-score bin. Logos (Schneider, T. D. & Stephens, R. M. (1990) Nucl. Acids Res. 18, 6097-6100) of each motif were then created by using sequences from the highest Z-score bin that contained the motif.

[3] = system: DNA hairpin target array; experiment: CSI array binding assay of Cy3-labeled Exd alone or with polyamide-peptide conjugates; details: for Motifs emerging from polyamide-Exd CSI data: in addition to G-stretches, Exd 20 nM, polyamide 50 nM
Description: Protein Binding: The microarrays were washed with 150 mM K-glutamate, 50 mM HEPES pH 7.5, 5% glycerol (reaction buffer), for 5 minutes. […] This solution was added to the hybridization chamber and incubated for 30 minutes. Subsequently, the microarrays were washed with reaction buffer and scanned.
To determine the sequence specificity of Exd, we labeled it with Cy3 at a unique cysteine residue on an unstructured portion of the protein (FIG. 6) (Passner, J. M., Ryoo, H. D., Shen, L., Mann, R. S. & Aggarwal, A. K. (1999) Nature 397, 714-719).
Array design for Hox/Exd Cooperative Binding Assay. The duplex DNA sequences are designed as self-complementary palindromes interrupted at the center by a TCCT sequence to facilitate the formation of DNA hairpins (FIG. 7). The 34 residue oligonucleotide is synthesized directly on the glass surface using a maskless array synthesizer (Singh-Gasson, S., Green, R. D., Yeu, Y., Nelson, C., Blattner, F., Sussman, M. R., Cerrina, F. (1999) Nat. Biotechnol. 17, 974-978) that can readily create up to 786,000 spatially resolved features. The unimolecular construction of duplex DNA allows the array to be reused several times without appreciable loss of information. After inducing hairpin formation, we find that greater than 95% of the oligonucleotides in the array form duplexes. In our hairpin design, we added three constant base pairs on either side of the 8 base pairs that were permuted (N′-8).
PA2 and PA3 (ImImPy*Py-γ-ImPyPyPy-β-Dp) are designed to target the sequence 5′-WGWCCW-3′. […] PA2 and PA3 differ solely by a single methylene in the linker connecting the Exd binding peptide to the polyamide (FIG. 8A) (Hauschild, K. E., Metzler, R. E., Arndt, H. D., Moretti, R., Raffaelle, M., Dervan, P. B., Ansari, A. Z. (2005) Proc. Natl. Acad. Sci. U.S.A. 102, 5008-5013). Since these polyamides are not fluorescently labeled, we detect cognate sites bound cooperatively by synthetic Hox mimics and Exd, as well as sites bound by Exd alone.
The raw array data for the above experiments were treated as described in Example 2. […] The Exd binding motif is 5′-NGAN-3′, which is consistent with the structural and genetic studies of Hox-Exd cognate sites (White, R. A., Aspland, S. E., Brookman, J. J., Clayton, L. & Sproat, G. (2000) Mech. Dev. 91, 217-226). In other words, the 5′-GA-3′ dinucleotide is the only required sequence determinant for Exd binding to DNA. Remarkably, the array identified the differences in the arrangement of polyamide and Exd binding sites due to ˜1.25 Å difference in the linker length between PA2 and PA3 (FIG. 8C). The other important result that emerges is that cooperative ternary assembly with Exd stabilizes binding of synthetic Hox mimics to truncated sites (5′-WGWC-3′). This is often seen in nature, where cooperative assembly of transcription factors utilizes sub-optimal binding sites to ensure that only a higher order complex can efficiently bind to a regulatory element (Thanos, D. & Maniatis, T. (1996) Methods Enzymol. 274, 162-173; Ptashne, M. & Gann, A. Genes and Signals. (2002) CSHL Press, New York).

[4] = system: Consensus hairpin DNA; experiment: Piper electrophoretic mobility shift assay; format: binding; details: 5 μM of PIPER
Description: (§1) The dotted line represents residues that are disordered in the crystal structure. The Exd residue R2C, is the unstructured amino acid to which the Cy3 dye is attached. […] The G-rich DNA in the absence of Exd has a band (bottom arrow), which is higher than the Consensus DNA shift with Exd and polyamide.
(§2) Piper Electrophoretic Mobility Shift Assay (FIG. 6D). The G-rich and Consensus hairpin DNA (same DNA as used in Hairpin Induction for EMSA) were incubated with increasing PIPER (Humphrey, W., Dalke, A. & Schulten, K. (1996) J. Mol. Graphics 14, 33-38) concentrations. PIPER final concentrations were […]. The gels were run and processed as above using an 8% acrylamide/3% glycerol gel with 0.5×TBE.

[5] = system: G-rich hairpin DNA; experiment: Piper electrophoretic mobility shift assay; format: binding; details: 5 μM of PIPER
Description: as §1, §2

[6] = target: T1, Extradenticle (Exd) homeodomain (Drosophila melanogaster, UniProt P40427 SEQ:1-63); experiment: EMSA; 100 nM Exd; band completely shifted; polyamide has no effect; K-glutamate 150 mM, HEPES pH 7.5; details: tags: none stated for EMSA; label: 32P; hairpin design; likely G-quadruplex
T1 sequence: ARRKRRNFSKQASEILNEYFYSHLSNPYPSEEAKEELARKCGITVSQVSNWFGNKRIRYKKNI
Description: Electrophoretic Mobility Shift Assays: 40mer DNA sequences labeled with ³²P (as per standard methods) were used in all reactions. Reactions were performed in a buffer composed of 150 mM Potassium Glutamate, 50 mM HEPES pH=7.5, 2 mM DTT, 100 ng/μL of BSA, 10% DMSO, and 10% glycerol. For the binding tests, polyamide-peptide conjugates (50 nM final concentration) and ³²P-DNA were incubated together for 30 minutes at 4° C. Exd was then added to bring the reaction volume to 20 μL. Exd final concentrations were 0.033, 0.1, 0.33, 1, 3.3, 10, 33, and 100 nM. These reactions were incubated at 4° C. for 1 hour and then 15 μL was loaded onto a pre-run 10% acrylamide/3% glycerol gel (1×TBE).
(§3) Hairpin Induction for Electrophoretic Mobility Shift Assay (Supplementary Figure S4B). Hairpin DNA was formed by heating synthesized ssDNA to 95° C. for 5 minutes and then rapidly cooling them on ice. The 34mer DNA […] were then labeled with ³²P (as per standard methods). For the hairpin electrophoretic mobility shift assays the concentrations of polyamide used were 50 nM, and Exd was present at a concentration of 100 nM. The reactions were performed in the above buffer and the gels were then run as before with the following exceptions: the gels were 8% acrylamide/3% glycerol gel with 0.5×TBE.

[7] = system: G-rich hairpin DNA; experiment: Hairpin electrophoretic mobility shift assay with Exd and polyamide; format: binding; details: upon addition of Exd (100 nM)
Description: as §1
as §3, with “^32P” for “³²P”

Molecule: O=C1c2ccc3c4ccc5c6c(ccc(c7ccc(c2c37)C(=O)N1CCN1CCCCC1)c64)C(=O)N(CCN1CCCCC1)C5=O [PIPER, N,N-Bis[2-(1-piperidino)ethyl]-3,4,9,10-perylenetetracarboxylic diimide]
- Aggregation of DNA (immobility from the well) [4]: does not
- Aggregation of DNA (immobility from the well) [5]: significant aggregation

B1: G-rich hairpin DNA (structured_DNA)
DNA: CGCCCCCCCCCCGCTCCTGCGGGGGGGGGGCGTTTT
- binding result [6]: binds

B2: Exd: transcription factor essential in Drosophila development; used Cy3-labeled (Exd R2C, residues 1-88) on the array (protein, UniProt P40427 1-88, looked up, fragment)
chain: MEDPNRMLAHTGGMMAPQGYGLSGQDDGQNAGSENEVRKQKDIGEILQQIMSISEQSLDEAQARKHTLNCHRMKPALFSVLCEIKEKT
modifications: Cy3 label
notes: transcription factor essential in Drosophila development; used Cy3-labeled (Exd R2C, residues 1-88) on the array
- Band shift of G-rich DNA [7]: completely shifted
- Exd binding motif ([3]; Cy3-labeled Exd with PA2 or PA3): 5′-NGAN-3′
- Sequence preference ([3]; Exd alone): unexpected preference for stretches of consecutive G-residues
- Sequence-specific binding ([3]; Exd alone, 0.2-200 nM): little sequence-specific binding

Now from value to molecule, other results behind:

- Intensity ([2]; Data Point A, average of all features containing ATGTACAT): 19715
- Intensity ([2]; Data Point B, average of all features containing AGTACT): 10952
- Intensity ([2]; Data Point C, average of all features containing ATCTACAT): 3035.5
- Intensity ([2]; Data Point D, average of all features containing ATATACAT): 2073.25
- Intensity ([2]; Data Point E, average of all features containing ATGTATTT): 1426.5
- Intensity relative to other permutations of the consensus sequence ([2]; all sequences containing 5′-WWGATCWW-3′): significantly lower intensities
- Effect of substitution on binding ([2]; double substitution at positions 3 and 6 to W (A/T stretch)): retains its ability to bind PA1
- Effect of substitution on binding ([2]; substituting an S (G or C) at position 8): only subtly decreases binding
- Effect of substitution on binding ([2]; substituting any other position that prefers a W with an S residue): nearly abolishes binding
Molecule: ImPy*PyPy-γ-ImPyPyPy-β-Dp [PA1]
- Ka ([1]; Data Point A, sequence ATGTACAT): 70 10^9 M^−1
- Ka ([1]; Data Point B, sequence AGTACT): 37 10^9 M^−1
- Ka ([1]; Data Point C, sequence ATCTACAT): 3.2 10^9 M^−1
- Ka ([1]; Data Point D, sequence ATATACAT): 2.8 10^9 M^−1
- Ka ([1]; Data Point E, sequence ATGTATTT): 0.41 10^9 M^−1
- Effect of substitution on binding ([2]; replacing one of the S residues at positions 6 (or 3′) with a W): significantly attenuates, but does not abolish binding

- Motifs emerging from polyamide-Exd CSI data [3]: three clear motifs
Molecule: ImImPy*Py-γ-ImPyPyPy-β-Dp [PA2]

- Motifs emerging from polyamide-Exd CSI data [3]: only two of those motifs
Molecule: ImImPy*Py-γ-ImPyPyPy-β-Dp [PA3]
